From ChEMBL document CHEMBL5131391, “One-pot three-component synthesis of novel pyrazolo[3,4-b]pyridines as potent antileukemic agents” (Eur J Med Chem, 2022)

Assays:
Assay type in all cases: functional
SK-MEL-2 [1] = test: Antiproliferative activity against human SK-MEL-2 cells assessed as growth inhibition measured after 48 hrs by NCI protocol based SRB assay
UACC-62 [2] = test: Cytostatic activity in human UACC-62 cells assessed as tumor growth inhibition measured after 48 hrs by NCI protocol based SRB assay
Hs-578T = test: Antiproliferative activity against human Hs-578T cells assessed as growth inhibition measured after 48 hrs by NCI protocol based SRB assay
SK-MEL-2 [3] = test: Cytostatic activity in human SK-MEL-2 cells assessed as tumor growth inhibition measured after 48 hrs by NCI protocol based SRB assay
UO-31 [4] = test: Antiproliferative activity against human UO-31 cells assessed as growth inhibition measured after 48 hrs by NCI protocol based SRB assay
OVCAR-3 [5] = test: Antiproliferative activity against human OVCAR-3 cells assessed as growth inhibition measured after 48 hrs by NCI protocol based SRB assay
K562 [6] = test: Cytostatic activity in human K562 cells assessed as tumor growth inhibition measured after 48 hrs by NCI protocol based SRB assay
KM12 = test: Cytostatic activity in human KM12 cells assessed as tumor growth inhibition measured after 48 hrs by NCI protocol based SRB assay
SK-MEL-5 = test: Cytostatic activity in human SK-MEL-5 cells assessed as tumor growth inhibition measured after 48 hrs by NCI protocol based SRB assay
ACHN [7] = test: Antiproliferative activity against human ACHN cells assessed as growth inhibition measured after 48 hrs by NCI protocol based SRB assay
HCT-15 = test: Cytostatic activity in human HCT-15 cells assessed as tumor growth inhibition measured after 48 hrs by NCI protocol based SRB assay
OVCAR-4 = test: Antiproliferative activity against human OVCAR-4 cells assessed as growth inhibition measured after 48 hrs by NCI protocol based SRB assay
UACC-257 = test: Antiproliferative activity against human UACC-257 cells assessed as growth inhibition measured after 48 hrs by NCI protocol based SRB assay
M14 [8] = test: Cytostatic activity in human M14 cells assessed as tumor growth inhibition measured after 48 hrs by NCI protocol based SRB assay
M14 [9] = test: Antiproliferative activity against human M14 cells assessed as growth inhibition measured after 48 hrs by NCI protocol based SRB assay
UACC-62 [10] = test: Antiproliferative activity against human UACC-62 cells assessed as growth inhibition measured after 48 hrs by NCI protocol based SRB assay
MDA-MB-231 = test: Antiproliferative activity against human MDA-MB-231 cells assessed as growth inhibition measured after 48 hrs by NCI protocol based SRB assay
NCI-H23 = test: Cytostatic activity in human NCI-H23 cells assessed as tumor growth inhibition measured after 48 hrs by NCI protocol based SRB assay
RPMI-8226 = test: Antiproliferative activity against human RPMI-8226 cells assessed as growth inhibition measured after 48 hrs by NCI protocol based SRB assay
NCI-H460 = test: Antiproliferative activity against human NCI-H460 cells assessed as growth inhibition measured after 48 hrs by NCI protocol based SRB assay
SF-295 = test: Cytostatic activity in human SF-295 cells assessed as tumor growth inhibition measured after 48 hrs by NCI protocol based SRB assay
MDA-MB-435 = test: Antiproliferative activity against human MDA-MB-435 cells assessed as growth inhibition measured after 48 hrs by NCI protocol based SRB assay
MOLT-4 = test: Cytostatic activity in human MOLT-4 cells assessed as tumor growth inhibition measured after 48 hrs by NCI protocol based SRB assay
UO-31 [11] = test: Cytostatic activity in human UO-31 cells assessed as tumor growth inhibition measured after 48 hrs by NCI protocol based SRB assay
CAKI-1 = test: Cytostatic activity in human CAKI-1 cells assessed as tumor growth inhibition measured after 48 hrs by NCI protocol based SRB assay
HT-29 = test: Antiproliferative activity against human HT-29 cells assessed as growth inhibition measured after 48 hrs by NCI protocol based SRB assay
SN12C = test: Cytostatic activity in human SN12C cells assessed as tumor growth inhibition measured after 48 hrs by NCI protocol based SRB assay
CCRF-CEM = test: Antiproliferative activity against human CCRF-CEM cells assessed as growth inhibition measured after 48 hrs by NCI protocol based SRB assay
Malme-3M = test: Cytostatic activity in human Malme-3M cells assessed as tumor growth inhibition measured after 48 hrs by NCI protocol based SRB assay
OVCAR-5 = test: Cytostatic activity in human OVCAR-5 cells assessed as tumor growth inhibition measured after 48 hrs by NCI protocol based SRB assay
NCI-H226 = test: Antiproliferative activity against human NCI-H226 cells assessed as growth inhibition measured after 48 hrs by NCI protocol based SRB assay
OVCAR-3 [12] = test: Cytostatic activity in human OVCAR-3 cells assessed as tumor growth inhibition measured after 48 hrs by NCI protocol based SRB assay
SF-268 = test: Cytostatic activity in human SF-268 cells assessed as tumor growth inhibition measured after 48 hrs by NCI protocol based SRB assay
HL-60(TB) = test: Antiproliferative activity against human HL-60(TB) cells assessed as growth inhibition measured after 48 hrs by NCI protocol based SRB assay
K562 [13] = test: Antiproliferative activity against human K562 cells assessed as growth inhibition measured after 48 hrs by NCI protocol based SRB assay
ACHN [14] = test: Cytostatic activity in human ACHN cells assessed as tumor growth inhibition measured after 48 hrs by NCI protocol based SRB assay
MDA-MB-468 = test: Antiproliferative activity against human MDA-MB-468 cells assessed as growth inhibition measured after 48 hrs by NCI protocol based SRB assay
COLO 205 = test: Antiproliferative activity against human COLO 205 cells assessed as growth inhibition measured after 48 hrs by NCI protocol based SRB assay
RS4-11 = test: Induction of cell cycle arrest in human RS4-11 cells assessed as accumulation of cells in G2/M phase measured after 48 hrs by PI staining based flow cytometry analysis; conditions: dose 1.25-10 µM, DDE = dose-dependent effect
[15] = read-out: LC50 (the source's name)

N#Cc1c(-c2ccccc2)nc2c(c(-c3ccccc3)nn2-c2ccccc2)c1-c1ccc(O)cc1
GI50 (SK-MEL-2 [1]): 2.39 µM | CC50 (SK-MEL-2 [1]; [15]): 41.7 µM | TGI (UACC-62 [2]): 3.18 µM | GI50 (Hs-578T): 1.41 µM | CC50 (Hs-578T; [15]): 43.8 µM | TGI (SK-MEL-2 [3]): 5.65 µM | GI50 (UO-31 [4]): 2.02 µM | CC50 (UO-31 [4]; [15]): 8.59 µM | GI50 (OVCAR-3 [5]): 2 µM | CC50 (OVCAR-3 [5]; [15]): 9.91 µM | TGI (K562 [6]): > 100 µM | TGI (KM12): 4.76 µM | TGI (SK-MEL-5): 3.19 µM | GI50 (ACHN [7]): 2.24 µM | CC50 (ACHN [7]; [15]): 20.5 µM | TGI (HCT-15): 3.79 µM | GI50 (OVCAR-4): 1.95 µM | CC50 (OVCAR-4; [15]): 12.8 µM | GI50 (UACC-257): 3.13 µM | CC50 (UACC-257; [15]): 6.55 µM | TGI (M14 [8]): 5.48 µM | GI50 (M14 [9]): 2.27 µM | CC50 (M14 [9]; [15]): 23 µM | GI50 (UACC-62 [10]): 1.7 µM | CC50 (UACC-62 [10]; [15]): 5.93 µM | GI50 (MDA-MB-231): 1.7 µM | CC50 (MDA-MB-231; [15]): 6.44 µM | TGI (NCI-H23): 3.84 µM | GI50 (RPMI-8226): 2.42 µM | CC50 (RPMI-8226; [15]): > 100 µM | GI50 (NCI-H460): 1.73 µM | CC50 (NCI-H460; [15]): 6.13 µM | TGI (SF-295): 4.29 µM | GI50 (MDA-MB-435): 1.86 µM | CC50 (MDA-MB-435; [15]): 7.39 µM | TGI (MOLT-4): 7.86 µM | TGI (UO-31 [11]): 4.17 µM | TGI (CAKI-1): 6.7 µM | GI50 (HT-29): 2.51 µM | CC50 (HT-29; [15]): 54.7 µM | TGI (SN12C): 3.04 µM | GI50 (CCRF-CEM): 3.13 µM | CC50 (CCRF-CEM; [15]): > 100 µM | TGI (Malme-3M): 3.83 µM | TGI (OVCAR-5): 3.41 µM | GI50 (NCI-H226): 1.97 µM | CC50 (NCI-H226; [15]): 37.3 µM | TGI (OVCAR-3 [12]): 4.45 µM | TGI (SF-268): 9.14 µM | GI50 (HL-60(TB)): 3.52 µM | CC50 (HL-60(TB); [15]): > 100 µM | GI50 (K562 [13]): 2.68 µM | CC50 (K562 [13]; [15]): > 100 µM | TGI (ACHN [14]): 5.89 µM | GI50 (MDA-MB-468): 2.41 µM | CC50 (MDA-MB-468; [15]): 18.5 µM | GI50 (COLO 205): 2.61 µM | CC50 (COLO 205; [15]): 58.2 µM

Cc1ccc(-c2nc3c(c(-c4ccccc4)nn3-c3ccccc3)c(-c3ccc(O)cc3)c2C#N)cc1
Activity (RS4-11): Dde
